Data taken from patent EP4740948A1 (Dong Wha Pharm. Co., Ltd., priority 2023, dated 2025).

How the values were obtained:
NCI-H1299 cells = test: Cancer cell proliferation inhibition (Cell Counting Kit-8), lung cancer cell line; type: cell-based; conditions: 1000 nM, cultured seven to 11 days; for inhibition at 1 µM: Homo sapiens, NCI-H1299, 264 h, read-out: % inhibition rate NCI-H129 9
Procedure, shortened: (§1)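 Cells seeded at 100-1,000/well in medium with 10% FBS and treated with 1000 nM test substance for 7-11 days. Viability measured with Cell Counting Kit-8; % inhibition = {1−(test/control)} × 100.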

SW-13 cells = test: Cancer cell proliferation inhibition (Cell Counting Kit-8), adrenal cancer cell line; type: cell-based; conditions: 1000 nM, cultured seven to 11 days; for inhibition at 1 µM: Homo sapiens, SW13, 264 h, read-out: % inhibition rate SW-13
Procedure, shortened: as §1

EZH1 = EZH1 (Homo sapiens, UniProt Q92800); test: AlphaLISA enzyme activity inhibition, EZH1; type: biochemical
Procedure, shortened: (§2)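 EZH1 or EZH2 was mixed with compound at 5 nM or 10 nM final in 20 mM Tris pH 8.0, 0.1% BSA, 0.5 mM DTT, then histone H3 peptide and SAM were added. After 2 h reaction, AlphaLISA acceptor and donor beads detected methylation; inhibition rate was calculated against DMSO control.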

G401 cells = test: Cancer cell proliferation inhibition (Cell Counting Kit-8), rhabdoid tumor cell line; type: cell-based; conditions: 1000 nM, cultured seven to 11 days; for % inhibition rate G401: 1 µM; for inhibition at 1 µM: Homo sapiens, G-401, 264 h, read-out: % inhibition rate G401
Procedure, shortened: (§3)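 Cells grown in RPMI1640, McCoy's 5a, L-15 or DMEM with 10% FBS, seeded at 100 to 1,000 cells/well and treated with test substance at 1000 nM for 7 to 11 days. Viability read by CCK-8; % inhibition = {1−(test/control)} × 100.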

Lovo cells = test: Cancer cell proliferation inhibition (Cell Counting Kit-8), colorectal cancer cell line; type: cell-based; conditions: 1000 nM, cultured seven to 11 days; for inhibition at 1 µM: Homo sapiens, LoVo, 264 h, read-out: % inhibition rate LoVo
Procedure, shortened: as §1

MIA-PaCa-2 cells = test: Cancer cell proliferation inhibition (Cell Counting Kit-8), pancreatic cancer cell line; type: cell-based; conditions: 1000 nM, cultured seven to 11 days; for inhibition at 1 µM: Homo sapiens, MIA PaCa-2, 264 h, read-out: % inhibition rate MIA-Paca2
Procedure, shortened: as §1

MKN-45 cells = test: Cancer cell proliferation inhibition (Cell Counting Kit-8), gastric cancer cell line; type: cell-based; conditions: 1000 nM, cultured seven to 11 days; for inhibition at 1 µM: Homo sapiens, MKN-45, 264 h, read-out: % inhibition rate MKN -45
Procedure, shortened: as §3

EZH2 = EZH2 (Homo sapiens, UniProt Q15910); test: AlphaLISA enzyme activity inhibition, EZH2; type: biochemical
Procedure, shortened: as §2

Chain of EZH1 (Q92800 whole entry, species assumed): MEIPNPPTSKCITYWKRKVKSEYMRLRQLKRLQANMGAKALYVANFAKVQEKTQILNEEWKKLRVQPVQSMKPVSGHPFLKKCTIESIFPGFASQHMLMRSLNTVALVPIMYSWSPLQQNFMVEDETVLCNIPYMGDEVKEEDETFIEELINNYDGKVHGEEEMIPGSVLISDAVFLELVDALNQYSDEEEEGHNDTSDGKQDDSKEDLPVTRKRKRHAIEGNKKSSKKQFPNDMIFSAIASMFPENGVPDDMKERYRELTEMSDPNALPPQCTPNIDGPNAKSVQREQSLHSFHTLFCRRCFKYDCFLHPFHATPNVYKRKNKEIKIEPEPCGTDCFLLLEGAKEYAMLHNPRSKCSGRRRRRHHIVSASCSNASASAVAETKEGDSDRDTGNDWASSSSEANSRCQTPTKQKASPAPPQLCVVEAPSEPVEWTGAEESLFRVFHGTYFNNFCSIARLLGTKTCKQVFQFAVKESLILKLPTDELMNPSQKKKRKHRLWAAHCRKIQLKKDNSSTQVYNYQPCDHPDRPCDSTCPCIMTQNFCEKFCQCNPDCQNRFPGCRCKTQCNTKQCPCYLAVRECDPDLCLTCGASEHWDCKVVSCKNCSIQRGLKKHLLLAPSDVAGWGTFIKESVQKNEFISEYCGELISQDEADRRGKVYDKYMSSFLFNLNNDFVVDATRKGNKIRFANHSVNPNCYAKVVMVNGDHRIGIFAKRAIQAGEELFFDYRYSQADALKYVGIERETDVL
Chain of EZH1 (O75530 whole entry partner, species assumed): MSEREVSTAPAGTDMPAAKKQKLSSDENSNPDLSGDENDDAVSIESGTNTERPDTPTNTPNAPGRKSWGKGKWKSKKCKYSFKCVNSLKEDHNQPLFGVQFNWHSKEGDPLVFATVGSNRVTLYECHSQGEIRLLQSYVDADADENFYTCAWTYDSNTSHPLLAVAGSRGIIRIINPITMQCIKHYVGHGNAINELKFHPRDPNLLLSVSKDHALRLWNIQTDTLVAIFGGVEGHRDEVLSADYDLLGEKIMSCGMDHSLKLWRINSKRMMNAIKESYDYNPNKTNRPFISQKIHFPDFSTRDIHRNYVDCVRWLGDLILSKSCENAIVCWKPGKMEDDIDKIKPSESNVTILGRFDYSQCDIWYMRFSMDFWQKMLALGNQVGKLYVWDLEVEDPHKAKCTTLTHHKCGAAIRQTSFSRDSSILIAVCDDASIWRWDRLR
Chain of EZH1 (Q15022 whole entry partner, species assumed): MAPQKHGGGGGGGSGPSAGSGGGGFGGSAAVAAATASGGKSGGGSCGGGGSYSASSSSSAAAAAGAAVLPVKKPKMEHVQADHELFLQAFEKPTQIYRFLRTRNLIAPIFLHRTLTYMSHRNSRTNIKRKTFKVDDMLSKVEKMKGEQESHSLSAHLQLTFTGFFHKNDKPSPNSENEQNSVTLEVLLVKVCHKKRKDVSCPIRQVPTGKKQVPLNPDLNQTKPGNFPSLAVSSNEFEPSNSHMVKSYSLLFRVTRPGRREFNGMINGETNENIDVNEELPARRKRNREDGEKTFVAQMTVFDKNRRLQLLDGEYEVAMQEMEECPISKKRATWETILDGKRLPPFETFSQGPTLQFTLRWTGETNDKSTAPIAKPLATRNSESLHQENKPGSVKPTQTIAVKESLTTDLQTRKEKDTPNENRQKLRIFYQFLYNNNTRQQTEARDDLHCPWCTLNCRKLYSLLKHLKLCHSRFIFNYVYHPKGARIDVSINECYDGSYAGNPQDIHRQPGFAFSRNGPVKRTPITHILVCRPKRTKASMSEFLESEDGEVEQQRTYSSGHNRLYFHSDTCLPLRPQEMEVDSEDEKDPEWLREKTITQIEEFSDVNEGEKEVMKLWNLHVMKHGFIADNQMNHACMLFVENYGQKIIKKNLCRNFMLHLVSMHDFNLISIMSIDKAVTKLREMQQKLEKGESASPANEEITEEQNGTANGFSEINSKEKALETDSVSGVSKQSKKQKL
Chain of EZH2 (Q15910 whole entry, species assumed): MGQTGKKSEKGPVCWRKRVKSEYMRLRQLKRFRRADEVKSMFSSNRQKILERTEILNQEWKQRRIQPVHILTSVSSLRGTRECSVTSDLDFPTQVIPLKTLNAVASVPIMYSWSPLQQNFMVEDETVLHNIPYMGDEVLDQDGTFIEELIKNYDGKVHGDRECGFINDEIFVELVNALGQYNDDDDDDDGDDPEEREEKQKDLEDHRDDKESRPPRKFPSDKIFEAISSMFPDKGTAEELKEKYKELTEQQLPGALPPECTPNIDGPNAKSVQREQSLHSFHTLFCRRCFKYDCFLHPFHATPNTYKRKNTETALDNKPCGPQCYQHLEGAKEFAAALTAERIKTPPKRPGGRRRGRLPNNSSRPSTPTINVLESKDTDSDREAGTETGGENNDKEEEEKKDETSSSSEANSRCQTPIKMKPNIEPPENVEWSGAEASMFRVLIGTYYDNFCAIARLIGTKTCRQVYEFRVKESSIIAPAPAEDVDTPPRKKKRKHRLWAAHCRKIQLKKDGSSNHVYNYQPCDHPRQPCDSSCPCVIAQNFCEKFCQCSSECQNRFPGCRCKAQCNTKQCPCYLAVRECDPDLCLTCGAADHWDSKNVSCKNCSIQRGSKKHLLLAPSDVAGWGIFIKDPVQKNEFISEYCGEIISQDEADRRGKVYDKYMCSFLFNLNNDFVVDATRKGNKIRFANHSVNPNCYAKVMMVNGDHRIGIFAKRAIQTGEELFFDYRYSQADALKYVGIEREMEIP
Chain of EZH2 (O75530 whole entry partner, species assumed): as the sequence (O75530 whole entry partner, species assumed) above
Chain of EZH2 (Q15022 whole entry partner, species assumed): as the sequence (Q15022 whole entry partner, species assumed) above

Row | inhibition at 0.005 µM (EZH1; 5nM test substance) | inhibition at 0.01 µM (EZH1; 10nM test substance) | inhibition at 0.005 µM (EZH2; 5nM test substance) | inhibition at 0.01 µM (EZH2; 10nM test substance) | SMILES | inhibition at 1 µM (NCI-H1299 cells) | inhibition at 1 µM (SW-13 cells) | % inhibition rate G401 (G401 cells) | inhibition at 1 µM (Lovo cells) | inhibition at 1 µM (MIA-PaCa-2 cells) | inhibition at 1 µM (MKN-45 cells) | further results
1 | 71.9% | 87.9% | 98.2% | 99.6% | CSc1cc(C)[nH]c(=O)c1CNC(=O)c1cc(-c2cnc(N3CCOCC3)nc2)c2c(c1C)OC(C)(C1CCN(CC(F)(F)F)CC1)O2 (single isomer, unassigned) [Compound 69, 2,4-dimethyl-N-((6-methyl-4-(methylthio)-2-oxo-1,2-dihydropyridin-3-yl)methyl)-7-(2-morpholinopyrimidine-5-yl)-2-(1-(2,2,2-trifluoro)piperidin-4-yl)benzo [d][1,3]dioxole-5-carboxamide] | ≤ 30% | 30 to 70% | +++ (+++: ≥70%) | ≥ 70% | ≤ 30% | 30 to 70% | –
2 | 68.5% | 82.8% | 96.1% | 99.5% | CSc1cc(C)[nH]c(=O)c1CNC(=O)c1cc(-c2cnc(N3CCOCC3)nc2)c2c(c1C)OC(C)(C1CCN(CC(F)F)CC1)O2 (single isomer, unassigned) [Compound 71, 2-(1-(2,2-difluoroethyl)piperidin-4-yl)-2,4-dimethyl-N-((6-methyl-4-(methylthio)-2-oxo-1,2-dihydropyridin-3-yl)methyl)-7-(2-morpholinopyrimidin-5-yl)benzo[d][1,3]dioxole-5-carboxamide] | 30 to 70% | 30 to 70% | +++ (+++: ≥70%) | ≥ 70% | ≤ 30% | 30 to 70% | –
3 | 75.7% | 88% | 99.2% | 99.5% | CCN1CCC(C2(C)Oc3c(-c4cnc(N5CCOCC5)nc4)cc(C(=O)NCc4c(SC)cc(C)[nH]c4=O)c(C)c3O2)CC1 (single isomer, unassigned) [Compound 73, 2-(1-ethylpiperidin-4-yl)-2,4-dimethyl-N-((6-methyl-4-(methylthio)-2-oxo-1,2-dihydropyridin-3-yl)methyl)-7-(2-morpholinopyrimidin-5-yl)benzo[d][1,3]dioxole-5-carboxamide] | ≤ 30% | 30 to 70% | +++ (+++: ≥70%) | 30 to 70% | ≤ 30% | 30 to 70% | –
4 | 79% | 96.2% | 99.5% | 99.6% | CCN1CCN(c2ncc(-c3cc(C(=O)NCc4c(SC)cc(C)[nH]c4=O)c(C)c4c3OC(C)(C3CCN(CC(F)(F)F)CC3)O4)cn2)CC1 (single isomer, unassigned) [Compound 76, 7-(2-(4-ethylpiperazin-1-yl)pyrimidin-5-yl)-2,4-dimethyl-N-((6-methyl-4-(methylthio)-2-oxo-1,2-dihydropyridin-3-yl)methyl)-2-(1-(2,2,2-trifluoroethyl)piperidin-4-yl)benzo[d][1,3]dioxole-5-carboxamide] | ≤ 30% | 30 to 70% | +++ (+++: ≥70%) | – | ≤ 30% | 30 to 70% | % inhibition rate LoVo (Lovo cells; 1 µM): +++ (+++: ≥70%)
5 | – | – | 97.1% | 99.5% | CCN(C)c1ccc(-c2cc(C(=O)NCc3c(SC)cc(C)[nH]c3=O)c(C)c3c2OC(C)(C2CCN(CC(F)(F)F)CC2)O3)cn1 (single isomer, unassigned) [Compound 79, 7-(2-(ethyl(methyl)amino)pyridin-5-yl)-2,4-dimethyl-N-((6-methyl-4-(methylthio)-2-oxo-1,2-dihydropyridin-3-yl)methyl)-2-(1-(2,2,2-trifluoroethyl)piperidin-4-yl)benzo[d][1,3]dioxole-5-carboxamide] | 30 to 70% | 30 to 70% | +++ (+++: ≥70%) | ≥ 70% | ≤ 30% | 30 to 70% | Enzyme inhibition % EZH1 (EZH1; 5nM test substance, 0.005 µM): 71.9%; Enzyme inhibition % EZH1 (EZH1; 10nM test substance, 0.01 µM): 87.4%
6 | 80.4% | 90.8% | 99.2% | 99.8% | CCN(C)c1ncc(-c2cc(C(=O)NCc3c(SC)cc(C)[nH]c3=O)c(C)c3c2OC(C)(C2CCN(CC(F)F)CC2)O3)cn1 (single isomer, unassigned) [Compound 81, 2-(1-(2,2-difluoroethyl)piperidin-4-yl)-7-(2-(ethyl(methyl)amino)pyrimidin-5-yl)-2,4-dimethyl-N-((6-methyl-4-(methylthio)-2-oxo-1,2-dihydropyridin-3-yl)methyl)benzo[d][1,3]dioxole-5-carboxamide] | ≤ 30% | 30 to 70% | +++ (+++: ≥70%) | ≥ 70% | ≤ 30% | 30 to 70% | –
7 | 45.3% | 78.8% | 99.2% | 99.4% | CCN1CCC(C2(C)Oc3c(-c4cnc(N(C)CC)nc4)cc(C(=O)NCc4c(SC)cc(C)[nH]c4=O)c(C)c3O2)CC1 (single isomer, unassigned) [Compound 83, 7-(2-(ethyl(methyl)amino)pyrimidin-5-yl)-2-(1-ethylpiperidin-4-yl)-2,4-dimethyl-N-((6-methyl-4-(methylthio)-2-oxo-1,2-dihydropyridin-3-yl)methyl)benzo[d][1,3]dioxole-5-carboxamide] | ≤ 30% | 30 to 70% | +++ (+++: ≥70%) | – | ≤ 30% | ≤ 30% | % inhibition rate LoVo (Lovo cells; 1 µM): +++ (+++: ≥70%)
8 | – | – | – | – | CCN(C)c1ccc(-c2cc(C(=O)NCc3c(SC)cc(C)[nH]c3=O)c(C)c3c2OC(C)(C2CCN(CC(F)(F)F)CC2)O3)cn1 (single isomer, unassigned) [Compound 86, 7-(6-(ethyl(methyl)amino)pyridin-3-yl)-2,4-dimethyl-N-((6-methyl-4-(methylthio)-2-oxo-1,2-dihydropyridin-3-yl)methyl)-2-(1-(2,2,2-trifluoroethyl)piperidin-4-yl)benzo[d][1,3]dioxole-5-carboxamide] | – | – | +++ (+++: ≥70%) | – | – | – | % inhibition rate NCI-H129 9 (NCI-H1299 cells; 1 µM): + (+: ≤30%); % inhibition rate SW-13 (SW-13 cells; 1 µM): + (+: ≤30%); Enzyme inhibition % EZH1 (EZH1; 5nM test substance, 0.005 µM): 42.0%; Enzyme inhibition % EZH1 (EZH1; 10nM test substance, 0.01 µM): 65.9%; % inhibition rate LoVo (Lovo cells): +++ (+++: ≥70%); % inhibition rate MIA-Paca2 (MIA-PaCa-2 cells): + (+: ≤30%); % inhibition rate MKN -45 (MKN-45 cells; 1 µM): ++ (++: more than 30% and less than 70%); Enzyme inhibition % EZH2 (EZH2; 5nM test substance, 0.005 µM): 98.3%; Enzyme inhibition % EZH2 (EZH2; 10nM test substance, 0.01 µM): 99.2%
9 | 45.2% | 62% | 99.5% | 99.9% | CCN(C)c1ccc(-c2cc(C(=O)NCc3c(SC)cc(C)[nH]c3=O)c(C)c3c2OC(C)(C2CCN(CC(F)F)CC2)O3)cn1 (single isomer, unassigned) [Compound 88, 2-(1-(2,2-difluoroethyl)piperidin-4-yl)-7-(6-(ethyl(methyl)amino)pyridin-3-yl)-2,4-dimethyl-N-((6-methyl-4-(methylthio)-2-oxo-1,2-dihydropyridin-3-yl)methyl)benzo[d][1,3]dioxole-5-carboxamide] | ≤ 30% | 30 to 70% | – | ≥ 70% | ≤ 30% | 30 to 70% | inhibition at 1 µM (G401 cells): ≥ 70%
10 | 40% | 71% | 99.5% | 100% | CCN1CCC(C2(C)Oc3c(-c4ccc(N(C)CC)nc4)cc(C(=O)NCc4c(SC)cc(C)[nH]c4=O)c(C)c3O2)CC1 (single isomer, unassigned) [Compound 89, 7-(6-(ethyl(methyl)amino)pyridin-3-yl)-2-(1-ethylpiperidin-4-yl)-2,4-dimethyl-N-((6-methyl-4-(methylthio)-2-oxo-1,2-dihydropyridin-3-yl)methyl)benzo[d][1,3]dioxole-5-carboxamide] | ≤ 30% | 30 to 70% | – | ≥ 70% | ≤ 30% | ≤ 30% | inhibition at 1 µM (G401 cells): ≥ 70%
11 | 39.3% | – | – | – | CSc1cc(C)[nH]c(=O)c1CNC(=O)c1cc(-c2ccc(N3C[C@@H](C)O[C@@H](C)C3)nc2)c2c(c1C)OC(C)([C@H]1CC[C@H](N(C)CC(F)(F)F)CC1)O2 (single isomer, unassigned) [Compound 107] | ≤ 30% | ≤ 30% | +++ (+++: ≥70%) | ≥ 70% | ≤ 30% | ≤ 30% | Enzyme inhibition % EZH2 (EZH2; 5nM test substance, 0.005 µM): 41.7%
